The text below walks through data of patent publication US11459339B2, “Biaryl derivative, preparation method thereof and pharmaceutical application thereof” (Abbisko Therapeutics Co., Ltd., priority 2018, dated 2022).

The target in series [1] is interaction between PD-1 and PD-L1 (Homo sapiens (Human), UniProt Q9NZQ7). Briefly: PD1-PDL1 HTRF binding activity test (Cisbio PD-1/PD-L1 binding assay kit). Conditions: read-out: PD1-PDL1 HTRF Binding Activity IC50.
Series [2] has as its target interaction between PD-1 and PD-L1 expressed on cell surfaces (Homo sapiens (Human), UniProt Q9NZQ7). Kind of series: Jurkat reporter gene cellular assay (Jurkat/NF-κB-luc/PD1 cells cocultured with Raji-PD-L1 cells, OKT-3 stimulation). The note with it: NF-κB-luc reporter activation fold, 6 hrs; read-out: Cell Activity EC50. The class given is cell-based. The method, boiled down: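 Jurkat cells stably expressing human PD-1 and NF-κB-luciferase were cocultured with Raji cells stably expressing human PD-L1 under OKT-3 stimulation, with compound present. Luminescence was read after 6 h.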
For orientation: A reporter such as luciferase makes a cellular process visible.

The nature of series [3]: Pharmacokinetic assay in mice, per oral administration. Conditions: ICR mice. The class given is in vivo. From the text:
C. Pharmacokinetic Assay in Mice
The purpose of this study was to study the pharmacokinetic behaviors of some compounds of the present invention, and administration routes were: per oral administration (PO) to ICR mice:
The compounds used in this test came from the compounds of the specific examples of the present invention.
ICR mice male N=3 original source: Shanghai Sippr-BK Laboratory Animal Co. Ltd.
2.3 Preparation and Administration of Medicaments
The compounds were weighed, and dissolved in solvent of 0.5% SDS+0.5% CMCNa. The mixture solutions were mixed well by shaking and ultrasonic treatment to obtain colorless clear solutions. The solutions were orally administered to nine mice after an overnight fast. The dosage of administration was 10 mg/kg (or 30 mg/kg).
With about 90 μL/time point, blood was drawn from the submaxillary vein, and heparin sodium was added for anticoagulation. The blood samples were placed onto the ice, and were centrifuged (centrifugation conditions: 8000 r/min, 6 min, 2-8° C.) within 1 hr to obtain plasmas. The time points for blood sampling were at 0 hr, 0.25 hr, 0.5 hr, 1 hr, 2 hrs, 4 hrs, 6 hrs, 8 hrs and 24 hrs after administration. The samples were stored in a refrigerator at −20° C.
40 μL of plasma sample was added to 160 μL of cold acetonitrile containing an internal standard, and the mixture solution was vortexed for 3 min and centrifuged at 11,000 r/min for 5 min. 100 μL of supernate was taken and added to 100 μL of water, and 5 μL of the sample was taken and analyzed by LC/MS/MS. Only the original compounds were analyzed for examples 1, 3, 5, 8, 46 and 141 (for results, see table 2); and both the original compounds and possible products of ester hydrolysis, namely example 2, 27, 65 and 105, were analyzed for examples 4, 26, 64 and 104 (for results, see table 3).

interaction between PD-1 and PD-L1, sequence (Q9NZQ7 19-238): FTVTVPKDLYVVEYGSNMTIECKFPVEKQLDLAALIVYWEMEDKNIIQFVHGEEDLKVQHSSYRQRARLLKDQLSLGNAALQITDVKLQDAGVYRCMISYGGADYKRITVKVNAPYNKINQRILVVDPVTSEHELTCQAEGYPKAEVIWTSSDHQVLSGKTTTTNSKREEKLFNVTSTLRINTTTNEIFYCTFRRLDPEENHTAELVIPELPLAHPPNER
interaction between PD-1 and PD-L1 expressed on cell surfaces, sequence (Q9NZQ7 19-290): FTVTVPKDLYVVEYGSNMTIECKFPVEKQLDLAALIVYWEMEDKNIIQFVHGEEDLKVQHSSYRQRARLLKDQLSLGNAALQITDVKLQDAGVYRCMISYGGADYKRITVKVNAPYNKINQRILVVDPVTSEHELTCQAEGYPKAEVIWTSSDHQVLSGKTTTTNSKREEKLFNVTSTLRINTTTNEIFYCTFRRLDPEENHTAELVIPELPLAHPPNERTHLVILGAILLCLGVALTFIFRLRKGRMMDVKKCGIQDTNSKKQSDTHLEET

For `COc1cc(C(=O)Nc2cccc(-c3cccc(NC(=O)c4cc(OC)c(CN5CCCC[C@H]5C(=O)O)cn4)c3C)c2C)ncc1CN1CCCC[C@H]1C(=O)O` [Example 65, (2S,2S)-1,1′-(((((2,2′-dimethyl-[1,1′-bipheny]-3,3′-diyl)bis(azanediyl))bis(carbonyl))bis(4-methoxypyridine-6,3-diyl))bis(methylene))bis(piperidine-2-carboxylic acid)], the 50% inhibitory concentration (IC50) (as a rule, the concentration needed to halve the response being measured) in series [1] turned out to be 0.12 nM. In addition, the half-maximal effective concentration (EC50) (as a rule, the concentration needed to bring the measured effect to its halfway point) in series [2] is 132 nM. Besides, the Cmax entry in series [3] (product of ester hydrolysis analyzed after PO 30 mg/kg of the ester (2 after 4, 27 after 26, 65 after 64)) is “BQL”.
As to `COC(=O)[C@@H](CO)NCc1cnc(C(=O)Nc2cccc(-c3cccc(NC(=O)c4cc(C5CC5)c(CN[C@H](CO)C(=O)OC)cn4)c3C)c2C)cc1C1CC1` [Example 104], in series [1], the half-inhibitory concentration (IC50) is 1.57 nM. In addition, the EC50 in series [2] amounted to 296 nM. Moreover, the Cmax result in series [3] (Table 3, PO 10 mpk, original compound (ester 104) analyzed) is on record as “BQL”. The “ester hydrolysis in the bodies of the mice after oral administration” value in series [3] (oral administration) is “rapidly became corresponding acids”.
With `COc1cc(C(=O)Nc2cccc(-c3cccc(NC(=O)c4cc(OC)c(CNCCO)cn4)c3Cl)c2C)ncc1CNCCO` [Example 141, N,N′-(2-chloro-2′-methyl-[1,1′-biphenyl]-3,3′-diyl)bis(5-(((2-hydroxyethyl)amino)methyl)-4-methoxypicolinamide)], in series [1], the IC50 amounted to 0.75 nM. Besides, the EC50 in series [2] amounted to 74 nM. The Cmax result in series [3] (PO 10 mg/kg, plasma, original compound analyzed) is recorded as “BQL”.
